Like-named read-outs stand apart in the source and are kept apart here.
Experiments:
HDAC7 = target: T1, HDAC7 (Homo sapiens, UniProt Q8WUI4); assay: HDAC biochemical activity measurement (fluorescent substrate deacetylation);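 further: fluorogenic deacetylation assay using acetyl-lysine substrate at 20 µM, enzyme and compound incubated 30 min at 37 °C, then developer added, fluorescence read at 360/460 nm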; details: HDAC7; 37° C. 30 minutes
T1 sequence (Q8WUI4 1-952): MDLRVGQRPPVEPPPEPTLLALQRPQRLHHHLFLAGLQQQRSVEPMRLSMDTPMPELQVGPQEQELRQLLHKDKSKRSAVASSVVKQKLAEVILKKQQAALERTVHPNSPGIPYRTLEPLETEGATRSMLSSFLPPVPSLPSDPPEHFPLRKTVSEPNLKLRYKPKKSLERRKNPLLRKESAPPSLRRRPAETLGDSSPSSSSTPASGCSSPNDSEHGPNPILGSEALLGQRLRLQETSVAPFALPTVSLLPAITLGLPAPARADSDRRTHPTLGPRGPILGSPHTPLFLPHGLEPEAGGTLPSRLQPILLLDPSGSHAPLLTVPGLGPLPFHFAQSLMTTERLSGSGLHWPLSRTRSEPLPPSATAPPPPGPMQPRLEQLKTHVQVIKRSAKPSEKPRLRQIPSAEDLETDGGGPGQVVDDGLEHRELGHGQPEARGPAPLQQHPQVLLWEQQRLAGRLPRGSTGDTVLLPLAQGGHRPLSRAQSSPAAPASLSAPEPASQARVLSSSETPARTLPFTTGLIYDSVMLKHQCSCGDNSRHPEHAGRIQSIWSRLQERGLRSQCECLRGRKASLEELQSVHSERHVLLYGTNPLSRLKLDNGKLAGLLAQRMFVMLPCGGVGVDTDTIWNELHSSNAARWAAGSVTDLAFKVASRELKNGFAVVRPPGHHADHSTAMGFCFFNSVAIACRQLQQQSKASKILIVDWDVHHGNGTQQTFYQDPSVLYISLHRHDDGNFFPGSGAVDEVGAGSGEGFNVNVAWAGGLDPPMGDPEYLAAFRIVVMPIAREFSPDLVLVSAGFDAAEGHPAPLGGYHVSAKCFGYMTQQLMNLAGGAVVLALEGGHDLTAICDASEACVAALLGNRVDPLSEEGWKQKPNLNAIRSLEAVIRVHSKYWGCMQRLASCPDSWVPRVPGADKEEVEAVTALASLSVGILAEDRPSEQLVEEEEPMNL

[1] = tested on: MCF-7 (human breast cancer cells); assay: MTT cancer cell growth inhibition; assay type: cell-based; details: Homo sapiens, MCF7, 72 h, 72 hours incubation, read-out: GI50 MCF
How it was run: (§1)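 Tumour cells in 10% FBS-supplemented DMEM or RPMI 1640 are plated at 1500 per well, dosed next day with compound (10^−5 through 10^−10 M, final) and kept 72 h. MTT is added for 4 h; dissolved formazan is measured at 570 nm and GI50 determined.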

[2] = tested on: HT1080 (human fibrosarcoma cells); assay: MTT cancer cell growth inhibition; assay type: cell-based; details: Homo sapiens, HT-1080, 72 h, MTT, 72 hours incubation, read-out: GI50 HT1
How it was run: as §1

[3] = tested on: BGC-823 (human gastric cancer cells); assay: MTT cancer cell growth inhibition; assay type: cell-based; details: Homo sapiens, BGC-823, 72 h, MTT, 72 hours incubation, read-out: GI50 BG
How it was run: as §1

[4] = tested on: MOLT-4 (human acute lymphoblastic leukemia cells); assay: MTT cancer cell growth inhibition; assay type: cell-based; details: Homo sapiens, MOLT-4, 72 h, MTT, 72 hours incubation, read-out: GI50 Mol
How it was run: as §1

[5] = tested on: K562 (human leukemia cells); assay: MTT cancer cell growth inhibition; assay type: cell-based; details: Homo sapiens, K562, 72 h, MTT, 72 hours incubation, K562 cells; read-out: GI50 K562
How it was run: as §1

[6] = tested on: A549 (human lung cancer cells); assay: MTT cancer cell growth inhibition; assay type: cell-based; details: Homo sapiens, A549, 72 h, MTT, 72 hours incubation, read-out: GI50 A54
How it was run: as §1

[7] = tested on: Huh-7 (human hepatoma cells); assay: MTT cancer cell growth inhibition; assay type: cell-based; details: Homo sapiens, Huh-7, 72 h, MTT, 72 hours incubation, Huh-7 cells; read-out: GI50 Huh-7
How it was run: as §1

[8] = tested on: Bel-7402 (human hepatoma cells); assay: MTT cancer cell growth inhibition; assay type: cell-based; details: Homo sapiens, Bel-7402, 72 h, MTT, 72 hours incubation, Bel-7402 cells; read-out: GI50 Bel-7402
How it was run: as §1

[9] = tested on: N-87 (human gastric cancer cells); assay: MTT cancer cell growth inhibition; assay type: cell-based; details: Homo sapiens, 72 h, MTT, 72 hours incubation, N-87 cells; read-out: GI50 N-87
How it was run: as §1

[10] = tested on: KBM-5 (human chronic myelogenous leukemia); assay: MTT cancer cell growth inhibition; assay type: cell-based; details: Homo sapiens, KBM5, 72 h, MTT, 72 hours incubation, KBM-5 cells; read-out: GI50 KBM-5
How it was run: as §1

[11] = tested on: DU145 (human prostate cancer cells); assay: MTT cancer cell growth inhibition; assay type: cell-based; details: Homo sapiens, DU-145, 72 h, MTT, 72 hours incubation, read-out: GI50 Du1
How it was run: as §1

[12] = tested on: KBM5-T315I (human chronic myelogenous leukemia); assay: MTT cancer cell growth inhibition; assay type: cell-based; details: Homo sapiens, 72 h, MTT, 72 hours incubation, KBM5-T315I cells; read-out: GI50 KBM5-T315I
How it was run: as §1

[13] = tested on: lncap (prostate cancer cells); assay: MTT cancer cell growth inhibition; assay type: cell-based; details: Homo sapiens, LNCaP, 72 h, MTT, 72 hours incubation, read-out: GI50 lnca
How it was run: as §1

[14] = tested on: H1975 (non-small cell lung adenocarcinoma); assay: MTT cancer cell growth inhibition; assay type: cell-based; details: Homo sapiens, NCI-H1975, 72 h, MTT, 72 hours incubation, H1975 cells; read-out: GI50 H1975
How it was run: as §1

[15] = tested on: Hela (human cervical cancer cells); assay: MTT cancer cell growth inhibition; assay type: cell-based; details: Homo sapiens, HeLa, 72 h, MTT, 72 hours incubation, read-out: GI50 Hela
How it was run: as §1

[16] = tested on: SGC-7901 (human gastric cancer cells); assay: MTT cancer cell growth inhibition; assay type: cell-based; details: Homo sapiens, SGC-7901, 72 h, MTT, 72 hours incubation, SGC-7901 cells; read-out: GI50 SGC-7901
How it was run: as §1

[17] = tested on: HCC827 (human non-small cell lung cancer cells); assay: MTT cancer cell growth inhibition; assay type: cell-based; details: Homo sapiens, HCC827, 72 h, MTT, 72 hours incubation, HCC827 cells; read-out: GI50 HCC827
How it was run: as §1

[18] = tested on: MDA-MB-231 (breast cancer cells); assay: MTT cancer cell growth inhibition; assay type: cell-based; details: Homo sapiens, MDA-MB-231, 72 h, read-out: GI50 MDA-MB-231, MTT, 72 hours incubation, MDA-MB-231 cells
How it was run: as §1

[19] = tested on: U937 (human leukemia cells); assay: MTT cancer cell growth inhibition; assay type: cell-based; details: Homo sapiens, U-937, 72 h, MTT, 72 hours incubation, read-out: GI50 U93
How it was run: as §1

[20] = tested on: PANC-1 (Pac-1, human pancreatic cancer cells); assay: MTT cancer cell growth inhibition; assay type: cell-based; details: Homo sapiens, PANC-1, 72 h, MTT, 72 hours incubation, read-out: GI50 PAN
How it was run: as §1

IC50 HDAC7 (HDAC7) | GI50 [5] | GI50 [7] | GI50 [8] | GI50 [9] | GI50 [10] | GI50 [12] | GI50 [14] | GI50 [16] | GI50 [17] | GI50 [18] | GI50 ([1]; MCF-7 cells) | GI50 ([2]; HT1080 cells) | GI50 ([3]; BGC-823 cells) | GI50 ([4]; MOLT-4 cells) | GI50 ([6]; A549 cells) | GI50 ([11]; DU145 cells) | GI50 ([13]; lncap cells) | GI50 ([15]; Hela cells) | GI50 ([19]; U937 cells) | Compound | further results
no activity | 0.053 µM | 0.075 µM | 0.042 µM | 0.032 µM | 0.036 µM | 0.034 µM | 0.049 µM | 0.063 µM | 0.073 µM | 0.025 µM |  |  |  |  |  |  |  |  |  | C/C=C1\NC(=O)c2nccc(n2)CNC(=O)C[C@@H](/C=C/CCS)OC(=O)[C@H](C(C)C)NC1=O [Compound 143] | GI50 [1]: 0.07 µM; GI50 [2]: 0.09 µM; GI50 [3]: 0.08 µM; GI50 [4]: 0.09 µM; GI50 [6]: 0.08 µM; GI50 [11]: 0.07 µM; GI50 [13]: 0.06 µM; GI50 [15]: 0.06 µM; GI50 [19]: 0.08 µM; GI50 [20]: 0.08 µM
no activity | 0.049 µM | 0.076 µM | 0.052 µM | 0.028 µM | 0.086 µM | 0.021 µM | 0.045 µM | 0.043 µM | 0.071 µM | 0.016 µM | 0.05 µM | 0.05 µM | 0.04 µM | 0.04 µM | 0.06 µM | 0.05 µM | 0.03 µM | 0.07 µM | 0.08 µM | C/C=C1\NC(=O)c2ccc(SC)c(n2)CNC(=O)C[C@@H](/C=C/CCSC(C)=O)OC(=O)[C@H](CCCCNC(=O)OCC2c3ccccc3-c3ccccc32)NC1=O [Compound 197] | GI50 ([20]; PANC-1 cells): 0.04 µM
no activity | 0.045 µM | 0.023 µM | 0.043 µM | 0.095 µM | 0.063 µM | 0.045 µM | 0.016 µM | 0.031 µM | 0.059 µM | 0.046 µM |  |  |  |  |  |  |  |  |  | C=C1NC(=O)c2cccc(n2)CNC(=O)C[C@@H](/C=C/CCS)OC(=O)[C@H](C(C)C)NC1=O [Compound 131] | GI50 [1]: 0.06 µM; GI50 [2]: 0.08 µM; GI50 [3]: 0.04 µM; GI50 [4]: 0.08 µM; GI50 [6]: 0.05 µM; GI50 [11]: 0.06 µM; GI50 [13]: 0.08 µM; GI50 [15]: 0.08 µM; GI50 [19]: 0.05 µM; GI50 [20]: 0.04 µM
no activity | 0.048 µM | 0.041 µM | 0.045 µM | 0.038 µM | 0.046 µM | 0.027 µM | 0.049 µM | 0.027 µM | 0.091 µM | 0.046 µM | 0.02 µM | 0.07 µM | 0.03 µM | 0.08 µM | 0.03 µM | 0.06 µM | 0.04 µM | 0.06 µM | 0.04 µM | C/C=C1\NC(=O)c2ccc(SC)c(n2)CNC(=O)C[C@@H](/C=C/CCSC(=O)CCCC)OC(=O)[C@H](C(C)C)NC1=O [Compound 158] | GI50 ([20]; PANC-1 cells): 0.02 µM
no activity | 0.036 µM | 0.021 µM | 0.062 µM | 0.065 µM | 0.021 µM | 0.043 µM | 0.038 µM | 0.053 µM | 0.037 µM | 0.027 µM | 0.04 µM | 0.02 µM | 0.06 µM | 0.09 µM | 0.03 µM | 0.05 µM | 0.05 µM | 0.08 µM | 0.06 µM | C/C=C1\NC(=O)c2nc(cc(SC)n2)CNC(=O)C[C@@H](/C=C/CCSC(C)=O)OC(=O)[C@H](C)NC1=O [Compound 218] | GI50 ([20]; PANC-1 cells): 0.05 µM
no activity | 0.035 µM | 0.035 µM | 0.052 µM | 0.038 µM | 0.086 µM | 0.024 µM | 0.037 µM | 0.028 µM | 0.052 µM | 0.035 µM |  |  |  |  |  |  |  |  |  | C/C=C1\NC(=O)c2cc(F)cc(n2)CNC(=O)C[C@@H](/C=C/CCSC(C)=O)OC(=O)[C@H](CCCCN)NC1=O [Example 73] | GI50 [1]: 0.02 µM; GI50 [2]: 0.05 µM; GI50 [3]: 0.03 µM; GI50 [4]: 0.03 µM; GI50 [6]: 0.02 µM; GI50 [11]: 0.03 µM; GI50 [13]: 0.03 µM; GI50 [15]: 0.08 µM; GI50 [19]: 0.03 µM; GI50 [20]: 0.05 µM
no activity | 0.038 µM | 0.042 µM | 0.082 µM | 0.023 µM | 0.012 µM | 0.032 µM | 0.052 µM | 0.039 µM | 0.016 µM | 0.039 µM | 0.03 µM | 0.01 µM | 0.08 µM | 0.03 µM | 0.02 µM | 0.05 µM | 0.02 µM | 0.06 µM | 0.02 µM | C/C=C1\NC(=O)c2ccc(SC)c(n2)CNC(=O)C[C@@H](/C=C/CCS)OC(=O)[C@H](C)NC1=O [Compound 234] | GI50 ([20]; PANC-1 cells): 0.03 µM
